Measured values published in publication PMC10460880, “Cathepsin K‐Activated Probe for Fluoro‐Photoacoustic Imaging of Early Osteolytic Metastasis” (Advanced Science, 2023).

Assays:
[1] = system: CTSK-overexpressing OCs on calf bone slice; experiment: In vitro bone resorption imaging assay; assay type: cell-based, C57BL/6J mice; settings: 2-CP 50 mM, 37 °C, 30 min, then CTSK-APPA 5 μM, 2 h
Experimental: PS. RAW 264.7 cells and BMMs were maintained in an atmosphere of 5% CO2 and 95% humidified air at 37 °C. The medium was changed every day.
Cell cytotoxicity assay. MDA-MB-231/Luc and RAW 264.7 cells were seeded in 96-well plates (5×10^3 cells per well) for 24 h and then incubated with CTSK-APPA or CTSK-APP (5, 10, 20, 50 μM) or saline for 24 h. The medium was removed and cells were incubated with CCK-8 (0.5 mg/mL) for another 1 h. The absorbance of the mixture at 450 nm was measured by using a microplate reader. Cell viability was expressed by the ratio of the absorbance of the cells incubated with the probes to that of the cells incubated with culture medium only.
In vitro osteoclast differentiation. Bone marrow-derived macrophages were isolated from the femurs and tibias of 4-week-old C57BL/6J mice and cultured in a complete medium containing M-CSF (30 ng/mL) for 4 days. BMMs were harvested to the 24-well plates (1×10^4 per well) and cultured in the complete medium containing M-CSF (30 ng/mL) and RANKL (100 ng/mL) for another 4 days. The osteoclasts were fixed and stained by using acid phosphatase and a leukocyte kit according to the manufacturer’s procedures.
In vitro bone resorption imaging assay. […]
Fluorescence images were captured by using the IVIS Spectrum imaging system with excitation […]

OCs = experiment: Cell selectivity experiment, osteoclasts; assay type: cell-based; settings: n = 3
[2] = system: MDA-MB-231/Luc-induced osteolytic metastasis; experiment: Real-time NIR fluorescence and PA imaging of osteolytic metastasis; assay type: in vivo, BALB/c nude mice; settings: 2-CP 50 mM, 200 μL, 1 h before probe; n = 3
Experimental: page 5: PS. RAW 264.7 cells and BMMs were maintained in an atmosphere of 5% CO2 and 95% humidified air at 37 °C. The medium was changed every day. Cell cytotoxicity assay. MDA-MB-231/Luc and RAW 264.7 cells were seeded in 96-well plates (5×10^3 cells per well) for 24 h and then incubated with CTSK-APPA or CTSK-APP (5, 10, 20, 50 μM) or saline for 24 h. The medium was removed and cells were incubated with CCK-8 (0.5 mg/mL) for another 1 h. The absorbance of the mixture at 450 nm was measured by using a microplate reader. Cell viability was expressed by the ratio of the absorbance of the cells incubated with the probes to that of the cells incubated with culture medium only. In vitro osteoclast differentiation. Bone marrow-derived macrophages were isolated from the femurs and tibias of 4-week-old C57BL/6J mice and cultured in a complete medium containing M-CSF (30 ng/mL) for 4 days. […] Fluorescence images were captured by using the IVIS Spectrum imaging system with excitation at 660 ± 10 nm and emission at 710 ± 10 nm. […] The bone marrow toxicity of CTSK-APPA and CTSK-APP was assessed by blood analyses in mice. […] The red blood count (RBC) and white blood count (WBC) were further measured. […] The supernatants containing excreted probes were quantified by using a UV-vis absorption spectrometer. […]

N#Cc1ncccn1 [Probe 2-CP, 2-Cyanopyrimidine, reference compound]
effect of inhibitor pre-treatment on CTSK-APPA fluorescence of bone-resorption slice [1]: remarkably suppressed NIR fluorescence | effect of inhibitor on CTSK-APPA fluorescence in OCs (OCs): effectively reduced | effect of preinjected inhibitor on NIR fluorescence and PA signals of CTSK-APPA [2]: reduced to the CTSK‐APP levels
